Laboratory results from patent publication US12156861B2, “Pharmaceutical composition for treating kidney cancer and application thereof” (SICHUAN JIUZHANG BIOLOGICAL SCIENCE AND TECHNOLOGY CO., LTD., priority 2018, dated 2024).
Read-outs that look alike come from different tables or passages of the source.

How the values were obtained:
[1] = test system: mouse renal cancer cell lines RuCa; test: WST-1 growth inhibition of mouse renal cancer cell line RuCa in vitro; format: cell-based; conditions: for Inhibition rate (%): Comparative Example 1, method of Experimental Example 1; for Observation of cell morphology / effect on cell growth / inhibition at 30 µg/mL / OD value (average): 48 h; for Observation of cell morphology / effect on cell growth: inverted microscope, compared with negative control; for inhibition at 30 µg/mL: Mus musculus, read-out: Inhibition rate (%); for inhibition at 30 µg/mL / OD value (average): final concentration 30 μg/ml; for OD value (average): WST-1, absorption at 440 nm
Protocol: (§1) Human kidney cancer cell line A498 and mouse kidney cancer cell line RuCa; the cells were passaged prior to use, and the cells that were in a good growth state and in log phase growth were selected for use.
(§2) Then, the cells were suspended in complete medium, and the cell concentration was adjusted to 6×10^4/ml. The cells were seeded in 96 well plates at 50 μl/well […], and three multiple wells were set up for each drug concentration.
(§3) On the next day after inoculation, once cells were adherent to the wall, the drugs were added according to the following groups and then incubated for 48 h.
The storage solution of each drug was prepared into 60 μg/ml with complete medium for use; the complete medium of each test drug mentioned above (50 μl) was placed in the 96-well plate inoculated cells, and the final concentration of each group was 30 μg/ml, three wells for each concentration.
Then, 10 μl WST-1 solution was added into the wells of above drug groups, negative control group, and blank control group. After the cells were incubated in 37° C. incubator for 4 h, the absorption values of different drug groups, negative control group and blank control group were measured at 440 nm by μ-Quant microplate analyzer.

[2] = test system: transplanted tumor RuCa in mice; test: Inhibitory effect on transplanted tumor RuCa in mice; format: in vivo, mouse; conditions: for Tumor inhibition rate (%) / Body weight 15 d after administration / Tumor weight: 30 mg/kg ip once a day, 15 times; for Body weight 15 d after administration / Tumor weight / Body weight Before administration: x ± SD, n = 10; for Body weight Before administration: baseline
From the text: Mouse renal cancer cell lines RuCa were established by subcutaneously inoculating in mouse axillary. The number of cells inoculated was 1×10^7, and after inoculation formed transplanted tumor, the cells were passaged in mice for 3 generations for use.
• 80 BABL/C-nu mice, half male and half female, weighing 18-22 g; 2 Experimental Method 2.1 Route of Administration
intraperitoneal injection (ip)
The tumor tissue in vigorous growth stage was cut into about 1.5 mm^3 and homogenized under aseptic conditions to prepare 1×10^7/ml cell suspension. 80 mice of the above specifications were inoculated subcutaneously in the right armpit with 0.1 ml cell suspension. On the second day after inoculation, the mice were weighed and randomly divided into 8 groups, with 10 mice in each group, that were test drug 1 group, test drug 2 group, test drug 3 group, test drug 4 group, test drug 5 group, test drug 6 group, test drug 7 group, and negative control group. The test drug group was administrated by intraperitoneal injection (ip), 30 mg/kg/time, once a day, and the administration was successively performed 15 times. The negative group was intraperitoneally injected with the same dose of normal saline, once a day, and the mice were weighed before administration.
At the end of administration, the experiment was stopped, and the mice were killed by cervical dislocation and weighed. The tumor was stripped, and the tumor inhibition rate was calculated.

[3] = test system: human renal cancer cell lines A498; test: WST-1 growth inhibition of human renal cancer cell line A498 in vitro; format: cell-based; conditions: for Observation of cell morphology / effect on cell growth: inverted microscope, compared with negative control; for inhibition at 15 µg/mL: final concentration 15 μg/ml; for inhibition at 60 µg/mL: final concentration 60 μg/ml; for OD value (average): WST-1, absorption at 440 nm
Protocol: as §1, §2, §3
The storage solution of each drug was prepared into 60 μg/ml with complete medium for use; the complete medium of each test drug mentioned above (50 μl) was placed in the 96-well plate inoculated cells, […], three wells for each concentration.
Then, 10 μl WST-1 solution was added into the wells of above drug groups, negative control group, and blank control group. […]
In order to objectively evaluate the synergistic effect of the combination of the three compounds, according to the standard proposed in the non patent literature Chou T C. Theoretical basis, experimental design, and computerized simulation of synergism and antagonism in drug combination studies. [J].
A, B and C denote the doses of three components in the pharmaceutical composition; Ae, Be, and Ce denote the dose of a single component required to achieve the tumor inhibition efficiency of the pharmaceutical composition when using a single compound alone. […] The smaller the CI value is, the stronger the synergistic effect is.

[4] = Homo sapiens, A498, read-out: Inhibition rate (%)
[5] = Homo sapiens, A498, final concentration 30 μg/ml (Table 3), read-out: Inhibition rate (%)
[6] = Homo sapiens, A498, final concentration 30 μg/ml, 48 h, read-out: Inhibition rate (%)
[7] = final concentration 30 μg/ml, 48 h

Row | Molecule | Inhibition rate (%) [1] [%] | Tumor inhibition rate (%) [2] [%] | Body weight 15 d after administration [2] | Tumor weight [2] [g] | Body weight Before administration [2] | Observation of cell morphology / effect on cell growth [1] | inhibition at 30 µg/mL [1] [%] | OD value (average) [1] | Observation of cell morphology / effect on cell growth ([3]; 48 h) | inhibition at 15 µg/mL [3, 4] [%] | inhibition at 30 µg/mL [3, 5] [%] | inhibition at 30 µg/mL [3, 6] [%] | inhibition at 60 µg/mL [3, 4] [%] | OD value (average) [3, 7] | inhibition at 0.1 µg/mL ([3]; Homo sapiens, A498, final concentration 0.1 μg/ml, read-out: Inhibition rate (%)) [%] | inhibition at 0.5 µg/mL ([3]; Homo sapiens, A498, final concentration 0.5 μg/ml, read-out: Inhibition rate (%)) [%] | inhibition at 1 µg/mL ([3]; Homo sapiens, A498, final concentration 1 μg/ml, read-out: Inhibition rate (%)) [%]
1 | Feruloylquinic acid [reference compound] | 10.42 | – | – | – | – | – | – | – | – | – | – | – | – | – | – | – | –
2 | O=C(/C=C/c1ccc(O)cc1)O[C@@H]1C[C@](O)(C(=O)O)C[C@@H](O)[C@H]1O [Coumaroylquinic acid, coumaroylquinic acid] | – | 7.41 | 25.2 ± 1.42 | 2.5 ± 0.19 | 19.4 ± 1.17 | almost had no effect on cell growth | 5.85 | 1.909 | almost had no effect on cell growth | 1.92 | 4.85 | 3.13 | 7.13 | 2.280 | – | – | –
3 | Cinnamoylquinic acid [reference compound] | 13.94 | – | – | – | – | – | – | – | – | – | – | – | – | – | – | – | –
4 | CNC(=O)c1cc(Oc2ccc(NC(=O)Nc3ccc(Cl)c(C(F)(F)F)c3)cc2)ccn1 [Sorafenib, sorafenib, reference compound] | – | – | – | – | – | – | – | – | – | – | – | – | – | – | 5.36 | 13.8 | 29.4
5 | O=C(/C=C/c1ccc(O)c(O)c1)O[C@@H]1C[C@](O)(C(=O)O)C[C@@H](O)[C@H]1O [Chlorogenic acid, chlorogenic acid] | 37.29 | 33.33 | 27.3 ± 1.19 | 1.8 ± 0.14 | 19.6 ± 0.98 | certain effect on cell growth | 38.5 | 1.248 | certain effect on cell growth | 15.7 | 37.2 | 36.5 | 61.3 | 1.494 | – | – | –
